Measured values reported in ChEMBL document CHEMBL4321858 (J Med Chem, 2019).
Values after ≈ are worked out from the molar mass of the structure shown.

Columns and labels:
[1] = Thermodynamic solubility of compound at pH 6.5; assay type: physicochemical; details: buffer; for solubility thermodynamic: read-out: Therm_solubility
[2] = Lipophilicity, logD of compound at pH 7.5 by RP-HPLC analysis; assay type: physicochemical; details: buffer
[3] = AUC in Wistar rat at 0.5 mg/kg, iv; assay type: ADME, organism-based; details: in vivo
[4] = Oral bioavailability in Wistar rat at 2 mg/kg; assay type: ADME, organism-based; details: in vivo
[5] = Apparent permeability across apical to basolateral side in human Caco2 cells at 2 uM after 2 hrs by LC/MS-MS analysis; assay type: ADME, cell-based; details: Caco-2
[6] = Volume of distribution at steady state in Wistar rat at 0.5 mg/kg, iv; assay type: ADME, organism-based; details: in vivo, read-out: Vdss
[7] = Unbound drug level in plasma of CFA induced C57BL/6N mouse at 50 mg/kg, po after 80 mins; assay type: ADME, organism-based; details: in vivo
[8] = Unbound drug level in plasma of CFA induced C57BL/6N mouse at […], po after 1 hr; assay type: ADME, organism-based; details: in vivo
[9] = AUC in Wistar rat at 1 mg/kg, iv; assay type: ADME, organism-based; details: in vivo
[10] = Volume of distribution at steady state in Wistar rat at 1 mg/kg, iv; assay type: ADME, organism-based; details: in vivo, read-out: Vdss
[11] = Unbound drug level in plasma of CFA induced C57BL/6N mouse at 50 mg/kg, po after 1 hr; assay type: ADME, organism-based; details: in vivo
[12] = Unbound drug level in plasma of CFA induced C57BL/6N mouse at 25 mg/kg, po after 1 hr; assay type: ADME, organism-based; details: in vivo

| solubility thermodynamic [1] [µg/mL] | logD [2] | bioavailability [4] [%] | Papp A→B at 2 h, 2 µM [5] [×10⁻⁶ cm/s] | SMILES | other results |
| --- | --- | --- | --- | --- | --- |
| 24 (≈ 52.5 µM) | 2.2 | 44 | 4.3 | NS(=O)(=O)c1cc(NC(=O)Cc2cc(F)ccc2Cl)ccc1OCC1CCOCC1 | AUC [3]: 1.11 kg·h/L; Vd [6]: 0.82 L/kg |
| 7 (≈ 15.5 µM) | 3 | – | – | NS(=O)(=O)c1cc(NC(=O)Cc2ccccc2Cl)ccc1Oc1cccc(Cl)c1 | – |
| 21 (≈ 47.8 µM) | 2.2 | 21 | 5.3 | NS(=O)(=O)c1cc(NC(=O)Cc2ccccc2Cl)ccc1OCC1CCOCC1 | AUC [3]: 0.37 kg·h/L; Vd [6]: 1.23 L/kg |
| – | 3.3 | – | – | NS(=O)(=O)c1cc(NC(=O)Cc2ccccc2C(F)(F)F)ccc1Oc1cccc(Cl)c1 | – |

More lines, now with the values behind:

| SMILES | solubility thermodynamic [1] [µg/mL] | logD [2] | bioavailability [4] [%] | Papp A→B at 2 h, 2 µM [5] [×10⁻⁶ cm/s] | other results |
| --- | --- | --- | --- | --- | --- |
| NS(=O)(=O)c1cc(NC(=O)Cc2ccccc2Cl)ccc1OCc1ccccc1 | – | – | – | – | Therm_solubility [1]: Insoluble |
| NS(=O)(=O)c1cc(NC(=O)Cc2c(F)cccc2Cl)ccc1Oc1cccc(Cl)c1 | 0.7 (≈ 1.49 µM) | – | – | – | – |
| NS(=O)(=O)c1cc(NC(=O)Cc2ccccc2Cl)ccc1Oc1ccc(-c2nccs2)cc1 | 1 (≈ 2 µM) | – | – | – | – |
| NS(=O)(=O)c1cc(NC(=O)Cc2ccccc2)ccc1Oc1cccc(Cl)c1 [BAY-1797] | 16 (≈ 38.4 µM) | 2.8 | 43 | 13.2 | Cp(f) [7]: 548 nM; Cp(f) [8]: 186 nM; AUC [9]: 1.06 kg·h/L; Vd [10]: 2.77 L/kg; Cp(f) [11]: 672 nM; Cp(f) [12]: 374 nM |
